Reference: patent US20190262330A1, “Method of Treating Hepatocellular Carcinoma Using N-(4-(6,7-dimethoxyquinolin-4-yloxy)phenyl)-N′-(4-fluorophenyl)cyclopropane-1,1-dicarboxamide, (2S)-hydroxybutanedioate” (Exelixis, Inc., priority 2017, published 2019)

Molecular target: CYP1A2 (Homo sapiens, UniProt P05177)
Assay: In vitro metabolic pathways
Format: in vitro ADME

CYP1A2, sequence (P05177 whole entry): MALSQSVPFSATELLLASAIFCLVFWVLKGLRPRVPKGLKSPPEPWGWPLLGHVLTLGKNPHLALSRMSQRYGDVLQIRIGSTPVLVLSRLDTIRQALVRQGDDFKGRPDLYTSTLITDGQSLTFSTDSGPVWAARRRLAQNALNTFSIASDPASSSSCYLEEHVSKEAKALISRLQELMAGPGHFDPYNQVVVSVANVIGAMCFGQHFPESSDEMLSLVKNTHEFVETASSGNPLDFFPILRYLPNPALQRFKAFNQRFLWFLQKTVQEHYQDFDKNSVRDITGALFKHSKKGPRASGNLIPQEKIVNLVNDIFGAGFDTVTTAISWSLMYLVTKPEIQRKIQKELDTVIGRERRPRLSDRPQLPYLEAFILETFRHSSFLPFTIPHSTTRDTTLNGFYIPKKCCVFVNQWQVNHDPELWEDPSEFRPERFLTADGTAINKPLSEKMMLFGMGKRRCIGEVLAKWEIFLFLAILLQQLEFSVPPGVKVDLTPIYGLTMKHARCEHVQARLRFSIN

Compound: COc1cc2nccc(Oc3ccc(NC(=O)C4(C(=O)Nc5ccc(F)cc5)CC4)cc3)c2cc1OC [cabozantinib]
- Effect of inhibition of CYP1A2 on metabolite formation: no effect
